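Following 48 hours of exposure in 96-well plates, responses at five concentrations were used to interpolate endpoints linearly. Abbreviation: GI50, concentration required for 50% inhibition of growth. Definition used: TGI = concentration required for complete inhibition of growth.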
What was measured:
Experiment in all cases: growth of human tumour cells (NCI), 48 h
HOP-18 NSCLC = system: HOP-18 NSCLC
HCT-116 colon = system: HCT-116 colon
HOP-92 NSCLC = system: HOP-92 NSCLC
MOLT-4 leukemia = system: MOLT-4 leukemia
COLO 205 colon = system: COLO 205 colon
CAKI-1 renal = system: CAKI-1 renal
SF-268 CNS = system: SF-268 CNS
UO-31 renal = system: UO-31 renal
HCC-2998 colon = system: HCC-2998 colon
OVCAR-3 ovarian = system: OVCAR-3 ovarian

Structure (SMILES) | TGI (HOP-18 NSCLC) [µM] | TGI (HCT-116 colon) [µM] | TGI (HOP-92 NSCLC) [µM] | TGI (MOLT-4 leukemia) [µM] | TGI (COLO 205 colon) [µM] | TGI (CAKI-1 renal) [µM] | TGI (SF-268 CNS) [µM] | TGI (UO-31 renal) [µM] | TGI (HCC-2998 colon) [µM] | TGI (OVCAR-3 ovarian) [µM] | GI50 (OVCAR-3 ovarian) [µM] | GI50 (HCT-116 colon) [µM] | GI50 (HOP-92 NSCLC) [µM] | GI50 (MOLT-4 leukemia) [µM] | GI50 (COLO 205 colon) [µM] | GI50 (CAKI-1 renal) [µM] | GI50 (SF-268 CNS) [µM] | GI50 (UO-31 renal) [µM] | GI50 (HCC-2998 colon) [µM]
N#CC(C#N)=c1ccc(=C2NCC3CCCN23)cc1 (stereo unspecified) | > 100 | > 100 | > 100 | > 100 | > 100 | > 100 | > 100 | > 100 | > 100 |  |  |  |  |  |  |  |  |  | 
Cc1nc2c(nc1C)C(=O)c1ccccc1C2=O | 9.53 | 13 | 45 | 48 | 5.57 | 61.9 | 46.3 | 36.2 | 15 | 13.3 |  |  |  |  |  |  |  |  | 
C=CCc1cc(OC)c2c(c1)C(O)CC(c1ccc(OC)c(OC)c1)O2 (stereo unspecified) | > 100 | > 100 | > 100 | > 100 | > 100 | > 100 | > 100 | > 100 | > 100 | > 100 |  |  |  |  |  |  |  |  | 
CC(=O)OC1COC(n2c(=S)n(-c3ccc(C)cc3)c(=O)c3ccccc32)C(OC(C)=O)C1OC(C)=O (stereo unspecified) | > 100 | > 100 | > 100 | > 100 | > 100 | > 100 | > 100 | > 100 | > 100 | > 100 |  |  |  |  |  |  |  |  | 
NC(CCc1nc(-c2ccc(Cl)cc2)cs1)C(=O)O (stereo unspecified) | > 100 | > 100 | > 100 | > 100 | > 100 | > 100 | > 100 | > 100 | > 100 | > 100 |  |  |  |  |  |  |  |  | 
CC1CN1P1(N2CC2C)=NP(N2CC2C)(N2CC2C)=NP(N2CC2C)(N2CC2C)=N1 (stereo unspecified) | > 50 | > 50 | > 50 | > 50 | > 50 | > 50 | > 50 | > 50 | > 50 | > 50 |  |  |  |  |  |  |  |  | 
CSc1ccc(/C=C2\CN(C)C/C(=C\c3ccc(SC)cc3)C2=O)cc1 | > 100 | > 100 | > 100 | > 100 | 61.6 | > 100 | > 100 | > 100 | > 100 | 56 |  |  |  |  |  |  |  |  | 
CCOC(=O)C(Sc1ccccc1)c1c(OC)cc(=O)oc1/C=[N+](/[O-])c1ccc(N(C)C)cc1 (stereo unspecified) | 61.6 |  |  | 37.9 | 45.4 | 32.1 | > 100 | 41.9 | 58.7 | 26 |  |  |  |  |  |  |  |  | 
O=C(O)C(Cc1ccccc1)N1C(=O)N/C(=C\c2ccc(F)cc2)C1=O (stereo unspecified) | > 100 | > 100 | > 100 | > 100 | > 100 | > 100 |  | > 100 | > 100 |  |  |  |  |  |  |  |  |  | 
CC1=C(C(=O)Nc2ccccc2C)C(c2ccco2)C(C(=O)Nc2ccccc2C)=C(C)N1C | > 100 | > 100 | > 100 | > 100 |  | > 100 | > 100 | > 100 | > 100 | > 100 |  |  |  |  |  |  |  |  | 
COc1ccc(NC(=O)c2cc(OC)cc(OC)c2)cc1 | > 100 | > 100 | > 100 | > 100 | > 42.8 | > 100 | > 100 | > 100 | > 100 | > 48.6 |  |  |  |  |  |  |  |  | 
CCOC(=O)C1=C(C)CC2C(=O)OC(=O)C2C1(C)C (stereo unspecified) | > 100 |  | > 100 | > 100 | > 100 |  | > 100 | > 100 | > 100 | > 100 |  |  |  |  |  |  |  |  | 
O=C(/C=C/c1ccccc1Cl)c1ccc(Cl)c(Cl)c1 | 32 | 23.6 | 58.1 | 61.4 | > 100 | 30.9 | 33.7 | 30.9 | 28.8 | 28.7 |  |  |  |  |  |  |  |  | 
COc1cc2cnc3c4cc(OC(C)C)c(OC)cc4ccc3c2cc1OC | > 100 | > 100 |  | > 100 | > 100 | > 100 | > 100 | > 100 | > 100 | > 100 |  |  |  |  |  |  |  |  | 
COc1ccc(/C=C\c2cc(OC)c3c(c2)OCO3)c(O)c1O | 46.4 | 17.7 | 16.1 | 47.5 | 45.1 | 20.5 | 18.8 | 12 | > 58 | 47.4 |  |  |  |  |  |  |  |  | 
CN(CC(=O)O)S(=O)(=O)c1ccc2ccccc2c1 | > 100 |  | > 100 | > 100 | > 100 | > 100 | > 100 | > 100 | > 100 | > 100 |  |  |  |  |  |  |  |  | 
COC(=O)[C@@]12C3=NO[C@]1(C(=O)OC)C(O[Si](C)(C)C(C)(C)C)[C@H]1OC(C)(C)O[C@H]1[C@@H]2C(OCc1ccccc1)CC3 (stereo partly specified) | > 100 | > 100 | 22.6 | > 100 | > 100 |  |  | > 100 | > 100 | > 100 |  |  |  |  |  |  |  |  | 
FC(F)(F)c1ccc(C2SCc3nc4ccccc4n32)cc1 (stereo unspecified) | > 100 | > 100 | 48.8 | > 100 | > 100 |  | > 100 | > 100 | > 100 |  |  |  |  |  |  |  |  |  | 
CC(=O)C(CN(C(C)C)C(C)C)C(c1ccccc1)c1c(O)c2ccccc2oc1=O (stereo unspecified) | > 100 | > 100 |  | > 100 | > 100 | > 100 | > 100 | > 100 |  | > 100 |  |  |  |  |  |  |  |  | 
COC(=O)Nc1nc2ccc(S(=O)c3ccccc3)cc2[nH]1 (stereo unspecified) |  | > 100 | > 100 | > 100 | 7.78 | > 100 | > 100 | > 100 | > 100 | > 100 | 7.39 | 3.5 | 9.88 | 5.86 | 2.51 | 4.99 | > 100 | 8 | 10.5
Fc1ccc(Nc2ncnc3ccc(-c4cnc5[nH]ccc5c4)cc23)cc1Cl |  | 3.63 | 5.49 | > 100 | 46.3 | 19.5 | > 73.4 | 2.38 | > 100 | 3.73 | 1.51 | 1.77 | 1.68 | > 20.8 | 3.58 | 0.502 | 3.47 | 0.6 | 4.87
O=c1cc(-c2cccc(O)c2)[nH]c2cc3c(cc12)OCO3 | > 100 | > 100 |  | > 100 | 9.32 |  | > 69.6 | > 100 | > 100 | 0.386 |  |  |  |  |  |  |  |  | 
CCOC(=O)Nc1nc2ccc(OCC)cc2s1 |  | > 100 | > 100 | > 100 | > 100 | > 100 | > 100 | > 100 | > 100 | > 100 | > 41.6 | 6.42 | > 62.7 | 59.4 | 10.4 | > 100 | 84.6 | > 100 | 31.6
CCCCCCCCSC1=CC(=O)c2nc3ccccc3c3ccnc1c23 |  | > 100 | > 100 | > 100 | > 100 | > 100 | > 100 | > 100 | > 100 | > 100 | 19 | 43.1 | 80 | 6.03 | > 100 | 59.8 | 24.7 | 49.5 | > 100
Cc1cc(=O)[nH]c(NNC(C#N)c2cccc(O)c2)n1 (stereo unspecified) | > 100 | > 100 | > 100 | > 100 | > 100 | > 100 | > 100 | > 100 |  | > 100 |  |  |  |  |  |  |  |  | 
Cc1cnc(NC(=O)C(Cc2ccccc2)NC(=O)c2ccccc2)s1 (stereo unspecified) |  | 11.9 | > 100 | 95.4 | 29.5 | > 100 | 54.7 | 18.9 | 5 | 25.8 | 11.3 | 2.96 | 29.9 | 24.1 | 13.5 | 33 | 23.2 | 3.98 | 1.83
CC1(C)OC(=O)C(=Cc2ccc(O)cc2)C(=O)O1 |  | > 100 | > 100 | > 100 | > 100 | > 100 | > 100 | > 100 | > 100 | > 100 |  |  |  |  |  |  |  |  | 
COc1c2ccoc2c(/C=C/C=O)c2oc(-c3ccccc3)cc(=O)c12 |  | 4.73 | > 100 | 5.24 | > 100 | > 100 | > 100 | 35.2 | 42 | 21.7 | 5.19 | 1.7 | 11.5 | 2.06 | 27.7 | 15.4 | 4.23 | 3.62 | 16.1
O=C1C2=C(SCCS2)C(=O)c2ccccc21 |  | 3.04 | 3.05 | 27.7 | 2.96 | 3.32 | 3.05 | 3.37 | 3.11 | 3.08 |  |  |  |  |  |  |  |  | 
CC[C@@]12CCCN3CC[C@]4(c5cccc(OC)c5N(C(C)=O)[C@@H]4CC1)[C@H]32 |  | > 100 | > 100 | 61.3 | > 100 | > 100 | > 100 | > 100 | 51.1 | > 100 |  |  |  |  |  |  |  |  | 
